# Entries after “also recorded” stand apart in the source; their conditions may differ. Read-outs that look alike come from different tables or passages of the source.
# Experiments:
# [1] = cited from earlier work; for Human Plasma Conc.: LSD1 inhibitors
# [2] = test system: Lgr5 GFP+ cochlear progenitor cells; test: Lgr5+ Assay (Stem Cell Proliferation Assay); format: cell-based
# [3] = test system: Lgr5+ cochlear progenitor cells; test: Quantification of Lgr5+ cochlear progenitor cell proliferation, expansion and enrichment (3D Matrigel culture, Celigo imaging, GFP(+) cell area); format: cell-based, mouse; conditions: for proliferation or enrichment of cochlear progenitor cells: inhibitor alone
# [4] = EZH2 inhibitors, active concentration range, <= is the upper end of a wrapped range
# [5] = active concentration of LSD1 inhibitor, >= is the lower end of a range wrapped over two lines
# [6] = EZH2 inhibitors, <= is the upper end of a wrapped range
compound,measurement,setting,value
O=C(N/N=C/c1c(O)ccc2ccccc12)c1ccncc1 [AS 8351],Human In Vivo Conc,[1]; KDM inhibitors,1000 to 3000 µM
same,Lgr5 GFP(+) cell count,"[2]; FIG. 37A: 2 μM AS 8351 + 3 μM CHIR99021 + 1 mM VPA in EFI vs EFI-C, EFI-CV",further enhances Lgr5 GFP+ progenitor cell proliferation
same,Lgr5 GFP(+) cell proliferation percentage,"[2]; FIG. 37B: 2 μM AS 8351 + 3 μM CHIR99021 + 1 mM VPA in EFI vs EFI-C, EFI-CV",further enhances enrichment
same,Lgr5+ Assay,"[2]; KDM inhibitors, active concentration range",1 to 3 µM
N[C@@H]1C[C@H]1c1ccccc1 [tranylcypromine],Lgr5 GFP(+) cell count,"[2]; FIG. 1A: 0-10 μM tranylcypromine alone in growth factors (EFI, 50 ng/mL each) vs EFI + 4 μM CHIR99021 (EFI-C) or + 1 mM VPA (EFI-CV)",does not proliferate
same,Lgr5 GFP(+) cell proliferation percentage,"[2]; FIG. 1B: 0-10 μM tranylcypromine alone in EFI vs EFI-C, EFI-CV",does not enrich
same,Lgr5 GFP(+) cell count,"[2]; FIG. 2A: 2 μM tranylcypromine + 4 μM CHIR99021 in EFI vs EFI-C, EFI-CV",enhances Lgr5 GFP+ progenitor cell proliferation
same,Lgr5 GFP(+) cell proliferation percentage,"[2]; FIG. 2B: 2 μM tranylcypromine + 4 μM CHIR99021 in EFI vs EFI-C, EFI-CV",enhances enrichment
same,Lgr5 GFP(+) cell count,[2]; FIG. 3A: 4 μM tranylcypromine + 4 μM CHIR99021 + 1 mM VPA in EFI vs EFI-CV,enhances Lgr5 GFP+ progenitor cell proliferation
same,Lgr5 GFP(+) cell proliferation percentage,[2]; FIG. 3B: 4 μM tranylcypromine + 4 μM CHIR99021 + 1 mM VPA in EFI vs EFI-CV,enhances enrichment
same,Lgr5+ progenitor cell proliferation and enrichment,[3]; combined with CHIR99021 (4 μM) and VPA (1 mM),proliferate and are enriched
same,Lgr5+ progenitor cell proliferation and enrichment,[3]; combined with Wnt agonist CHIR99021 (4 μM),proliferate and are enriched
same,proliferation or enrichment of cochlear progenitor cells,[3],does not promote the proliferation or enrichment
CCN(c1cc(-c2ccc(CN3CCOCC3)cc2)cc(C(=O)NCc2c(C)cc(C)[nH]c2=O)c1C)C1CCOCC1 [tazemetostat],Human In Vivo Conc,"[1]; EZH2 inhibitors, >= is the lower end of a wrapped range",(200-1600 nM)
same,Human In Vivo Conc,[1]; EZH2 inhibitors,100 to 800 ng/mL
same,Lgr5+ Assay,[2]; [4],0.1 to 10 µM
CC(C)N(CCCNC(=O)Nc1ccc(C(C)(C)C)cc1)C[C@H]1O[C@@H](n2ccc3c(N)ncnc32)[C@H](O)[C@@H]1O [EPZ004777],Human In Vivo Conc,[1]; DOT1L inhibitors,0.1-45 uM μM
same,Lgr5+ Assay,"[2]; DOT1L inhibitors, active concentration range",0.6-45 μm μM
same,Lgr5 GFP(+) cell count,"[2]; FIG. 34A: 15 μM EPZ004777 + 3 μM CHIR99021 in EFI vs EFI-C, EFI-CV",enhances Lgr5 GFP+ progenitor cell proliferation
same,Lgr5 GFP(+) cell proliferation percentage,"[2]; FIG. 34B: 15 μM EPZ004777 + 3 μM CHIR99021 in EFI vs EFI-C, EFI-CV",enhances enrichment
same,Lgr5+ progenitor cell proliferation and enrichment,"[3]; combined with CHIR99021, compared to CHIR99021 alone",proliferation and enrichment are enhanced
c1ccc([C@@H]2C[C@H]2NC2CCNCC2)cc1 [GSK-LSD1],Human Plasma Conc.,[1],1 to 100 nM
same,Lgr5 GFP(+) cell count,"[2]; FIG. 5A: 4.5 nM GSK-LSD1 + 4 μM CHIR99021 + 1 mM VPA in EFI vs EFI-C, EFI-CV",enhances Lgr5 GFP+ progenitor cell proliferation
same,Lgr5 GFP(+) cell proliferation percentage,"[2]; FIG. 5B: 4.5 nM GSK-LSD1 + 4 μM CHIR99021 + 1 mM VPA in EFI vs EFI-C, EFI-CV",enhances enrichment
same,Lgr5+ Assay,[2]; [5],≥ 4 nM-
CN1CCN(C(=O)CN[C@H]2C[C@@H]2c2ccc(OCc3ccccc3)cc2)CC1.Cl.Cl [RN-1],Human Plasma Conc.,[1],1 to 100 nM
same,Lgr5+ Assay,[2]; [5],0.041 µM
O=C(O)c1ccc(CN2CCC(CN[C@@H]3C[C@H]3c3ccccc3)CC2)cc1 [GSK2879552],Lgr5 GFP(+) cell count,"[2]; FIG. 4A: 370 nM GSK2879552 + 4 μM CHIR99021 + 1 mM VPA in EFI vs EFI-C, EFI-CV",enhances Lgr5 GFP+ progenitor cell proliferation
same,Lgr5 GFP(+) cell proliferation percentage,"[2]; FIG. 4B: 370 nM GSK2879552 + 4 μM CHIR99021 + 1 mM VPA in EFI vs EFI-C, EFI-CV",enhances enrichment
same,Lgr5+ progenitor cell proliferation and enrichment,[3]; inhibitor 370 nM with CHIR99021 (4 μM) and VPA (1 mM),proliferation and enrichment are enhanced
CCS(=O)(=O)N1CCC(C(C)n2c(C)c(C(=O)NCc3c(OC)cc(C)[nH]c3=O)c3ccccc32)CC1 (stereo not drawn) [CPI-169],Human In Vivo Conc,[1]; [6],1 to 10 µM
same,Lgr5+ Assay,[2]; [4],0.1 to 10 µM
same,Lgr5 GFP(+) cell count,"[2]; FIG. 11A: 1.11 μM CPI-169 + 4 μM CHIR99021 in EFI vs EFI-C, EFI-CV",enhances Lgr5 GFP+ progenitor cell proliferation
same,Lgr5 GFP(+) cell area,[2]; FIG. 33A: 1.11 μM CPI-169 + 4 μM CHIR99021 in EFI vs CHIR alone,enhances Lgr5 GFP+ progenitor cell proliferation
same,Lgr5 GFP(+) cell area percentage,[2]; FIG. 33B: 1.11 μM CPI-169 + 4 μM CHIR99021 in EFI vs CHIR alone,enhances enrichment
COc1cc(C)[nH]c(=O)c1CNC(=O)c1c(C)n([C@H](C)C2CCOCC2)c2ccccc12 [CPI-360],Human In Vivo Conc,[1]; [6],1 to 10 µM
same,Lgr5+ Assay,[2]; [4],0.1 to 10 µM
same,Lgr5 GFP(+) cell area,[2]; FIG. 12A: 0-30 μM CPI-360 alone in EFI,does not proliferate
same,Lgr5 GFP(+) cell area percentage,[2]; FIG. 12B: 0-30 μM CPI-360 alone in EFI,does not enrich
same,Lgr5 GFP(+) cell area,[2]; FIG. 13A-16A: 3.33 μM CPI-360 + 4 μM CHIR99021 in EFI vs CHIR alone,enhances Lgr5 GFP+ progenitor cell proliferation; also recorded: enhances Lgr5 GIP+ progenitor cell proliferation
same,Lgr5 GFP(+) cell area percentage,[2]; FIG. 13B-16B: 3.33 μM CPI-360 + 4 μM CHIR99021 in EFI vs CHIR alone,enhances enrichment
CC(=O)O.Cc1cc(C)c(CN2CCc3c(Cl)cc(-c4c(C)noc4C)c(Cl)c3C2=O)c(=O)[nH]1 [PF 06726304 acetate],Lgr5 GFP(+) cell area,[2]; FIG. 20A: 0-90 μM PF 06726304 acetate alone in EFI,does not proliferate
same,enrichment of Lgr5 GFP+ cells (y-axis: Lgr5 GFP(+) cell area),[2]; FIG. 20B: 0-90 μM PF 06726304 acetate alone in EFI,does not enrich
same,Lgr5 GFP(+) cell area,"[2]; FIG. 21A, 22A: 370 nM PF 06726304 acetate + 4 μM CHIR99021 in EFI vs CHIR alone",enhances Lgr5 GFP+ progenitor cell proliferation
same,Lgr5 GFP(+) cell area percentage,"[2]; FIG. 21B, 22B: 370 nM PF 06726304 acetate + 4 μM CHIR99021 in EFI vs CHIR alone",enhances enrichment
same,Lgr5+ progenitor cell enrichment,"[3]; in combination with CHIR99021 (FIG. 23, FIG. 24)",enriched
same,proliferation or enrichment of cochlear progenitor cells,[3],does not promote the proliferation or enrichment
CCN(c1cc(C#CCN2CCOCC2)cc(C(=O)NCc2c(C)cc(C)[nH]c2=O)c1C)[C@H]1CC[C@H](N(C)CCOC)CC1 [EPZ011989],Lgr5 GFP(+) cell area,[2]; FIG. 25A: 0-10 μM EPZ011989 alone in EFI,does not proliferate
same,enrichment of Lgr5 GFP+ cells (y-axis: Lgr5 GFP(+) cell area),[2]; FIG. 25B: 0-10 μM EPZ011989 alone in EFI,does not enrich
same,Lgr5 GFP(+) cell area,[2]; FIG. 26A-29A: 123 nM EPZ011989 + 4 uM CHIR99021 in EFI vs CHIR alone,enhances Lgr5 GFP+ progenitor cell proliferation
same,Lgr5 GFP(+) cell area percentage,[2]; FIG. 26B-29B: 123 nM EPZ011989 + 4 uM CHIR99021 in EFI vs CHIR alone,enhances enrichment
same,proliferation or enrichment of cochlear progenitor cells,[3],does not promote proliferation or enrichment
NC1CC1c1ccccc1 (stereo not drawn) [TCP],Human Plasma Conc. Cmax,"[1]; human plasma Cmax, >= and <= are the ends of a wrapped range",30 to 200 ng/mL
same,Cmax,"[1]; human plasma Cmax, read-out: Human Plasma Conc. Cmax (molar, in brackets)",225 to 1500 nM
same,Lgr5+ Assay,"[2]; active concentration of LSD1 inhibitor, <= is the upper end of a range wrapped over two lines",0.1 to 20 µM
CN1CCN(C(=O)CN[C@H]2C[C@@H]2c2ccc(OCc3ccccc3)cc2)CC1.Cl.Cl [RN-1 HCl],Lgr5 GFP(+) cell count,"[2]; FIG. 38A: 0-30 μM RN-1 HCl alone in EFI vs EFI-C, EFI-CV, EFI-CVT (7 μM tranylcypromine)",does not proliferate
same,enrichment of Lgr5 GFP+ cells (y-axis: Lgr5 GFP(+) cell count),"[2]; FIG. 38B: 0-30 μM RN-1 HCl alone in EFI vs EFI-C, EFI-CV, EFI-CVT",does not enrich
same,Lgr5 GFP(+) cell count,"[2]; FIG. 39A: 41 nM RN-1 + 4 μM CHIR99021 + 1 mM VPA in EFI vs EFI-C, EFI-CV, EFI-CVT",further enhances Lgr5 GFP+ progenitor cell proliferation
same,enrichment of Lgr5 GFP+ cells (y-axis: Lgr5 GFP(+) cell count),"[2]; FIG. 39B: 41 nM RN-1 + 4 μM CHIR99021 + 1 mM VPA in EFI vs EFI-C, EFI-CV, EFI-CVT",enhances enrichment
same,proliferation or enrichment of cochlear progenitor cells,[3],does not promote the proliferation or enrichment

# From patent US20220127568A1, “COMPOSITIONS AND METHODS FOR GENERATING HAIR CELLS BY INHIBITING EPIGENETIC TARGETS” (Frequency Therapeutics, Inc., priority 2019, published 2022)
